# In patent publication US12233164B2, “Drug delivery composition and method of fabrication” (DIGNITY HEALTH, priority 2017, dated 2025):
# How the values were obtained:
# [1] = Controlled release of quisinostat from dialysis cassette into PBS; assay type: physicochemical; details: 37° C., 3.5k MWCO dialysis cassette
# Experimental: Controlled Release Quisinostat release from nanoparticles was determined using a protocol adapted from Wang et al.. Nanoparticles were diluted to 20 mg/ml in PBS (pH 7) and 400 μl was transferred to a 3.5 k MWCO Slide-A-Lyzer Dialysis cassette (Thermo Fisher Scientific, Waltham, MA USA) in triplicate. Each cassette was immersed in 2 l PBS (pH 7, replaced at each time point) at 37° C. with gentle stirring (100 rpm). At each time point, 30 μl nanoparticles was removed from the cassette and dissolved in 150 μl DMSO. 60 μl dissolved nanoparticles was added in triplicate to a clear, flat bottom, 96-well plate, and the amount of drug remaining was quantified by absorbance as described above. A free quisinostat control at the equivalent concentration was included to measure quisinostat movement across the membrane using the same protocol.
# [2] = tested on: GL261 murine glioma cells; test: In vitro nanoparticle efficacy, CellTiter-Glo cell viability; assay type: cell-based; details: Mus musculus, 72 hours, read-out: IC50, growth inhibition
# Experimental: Cell Culture GL261-LucNeo cells were generated by retroviral transduction of parent GL261 cells. The LucNeo construct (obtained from AndrewKung laboratory, Dana-Farber Cancer Institute) is described in Rubin et al.. Cells were maintained under normal adherent culture conditions supplemented with G-418 as a selection pressure. Cells were grown in T25 flasks in DMEM containing glucose, L-glutamine and 10% FBS at 37° C. and 5% CO2. 0.25% trypsin-EDTA was applied to collect cells, and a Cellometer mini (Nexcelom Bioscience, Lawrence, MA USA) was used to count cells prior to all in vitro and in vivo experiments.
# In vitro Nanoparticle Efficacy GL261 cells were seeded in 96-well flat, white walled, clear bottom plates at a density of 3 k cells/well in 100 μl media and allowed to attach for 4 hours prior to adding treatments. Each plate was treated with 10 μl/well of 19 serial dilutions (1:2) ranging from 10 to 0 μM in PBS of either free drug or nanoparticles. After 72 hours, cell viability was assessed using CellTiter-Glo, and an IC50 value was calculated using GraphPad Prism (San Diego, CA USA) by a nonlinear fit of the log (inhibitor) vs. response function.
# [3] = tested on: orthotopic GL261-LucNeo tumors; test: Treatment efficacy in mice bearing orthotopic GL261 tumors (bioluminescence tumor growth, survival); assay type: in vivo, C57BL/6 albino mice; details: free drug study: 10 mg/kg IP, days 11, 12, 18, 19, n=5
# Experimental: Tumor induction Orthotopic GL261-LucNeo tumors were induced in C57BL/6 albino mice (Harlan Laboratories, Indianass, IN, USA) as previously reported. Briefly, mice were anesthetized with an intraperitoneal injection of ketamine/xylazine (100/10 mg/kg) and mounted in a stereotaxic frame (Kopf Instruments, Tujunga, CA, USA) on top of an infrared heating pad to maintain animal temperature. The animal's head was shaved and sterilized with three alternating passes each of betadine and ethanol. A 1 cm incision was made over midline, and a burr hole was drilled 2 mm lateral, 0.1 mm posterior of bregma. A hamiltion syringe (29 gauge needle) containing 75 k GL261-LucNeo cells in 2 μl DMEM was inserted into the hole to a depth of 2.8 mm and the cells were injected over 2 min. The needle was left in place for 1 min to reduce backflow before the wound was closed with staples. All animals received a subcutaneous (SQ) injection of Buprenorphine SR prior to surgery, and ibuprofen was provided in their water ad lib for 1 week for pain. […]
# Tumor treatment Quisinostat-loaded nanoparticles were tested in vivo in mice bearing orthotopic GL261 tumors. […] Treatment efficacy was measured by tumor growth and median survival. Mice were monitored daily and euthanized at the sign of symptoms (lack of grooming, abnormal gait, hunched posture, etc.) or greater than 15% weight loss. […]
# [4] = solubilized with hydroxy-propyl-β-cyclodextrin and/or mannitol; IP or SQ injection; cited from earlier work
smiles,measurement,setting,value
"Cn1cc(CNCC2CCN(c3ncc(C(=O)NO)cn3)CC2)c2ccccc21 [quisinostat, Quisinostat]",time to complete quisinostat release,[1],≤ 4 h
same,IC50,[2],24 nM
same,tumor doubling time,[3]; saline 2.4 days,2.4 days
same,median survival,[3]; saline 22 days,19 days
same,maximum tolerated dose,[4],35-70 mg/kg/week
